In article PMC8408311 (Diabetologia, 2021):
Where two headings read alike, the source gives them in different places. Values belong to the molecule of their own block, whether it stands above or below them. Where no end group is shown, it is not given here.

Assays:
[1] = 3-month exercise training with carnosine or placebo in overweight elderly; type: in vivo, human
C2C12 myotubes = experiment: C2-ceramide recycling and insulin response in C2C12 myotubes; type: cell-based, mouse; conditions: 2 h treatment, ceranib-2 alone
[2] = Ciprofibrate 5-week crossover study in prediabetic male volunteers; type: in vivo, human
[3] = Contribution of HFCS-55 fructose to hepatic fatty acid synthesis, 13C/2H NMR; type: in vivo, mouse
[4] = SUSTAIN 10 post hoc analysis by baseline SGLT-2i; type: in vivo, human
INS-1 832/13 cells = experiment: mRNA expression in INS-1 832/13 cells under ER stress; type: cell-based, rat
[5] = type: in vivo, human; conditions: once weekly
[6] = RESTORE-2 naive cohort, retrospective propensity score matched study; type: in vivo, human; conditions: for Incidence rate of blood glucose <54 mg/dl / Incidence rate of blood glucose ≤70 mg/dl: during 6 months; for FBG change at 6 months / FBG reduction at 6 months / HbA1c reduction from baseline to 12 months: in vivo; for HbA1c change from baseline to 6 months: propensity score matched, 357 per cohort
Arrb2-/- beta cells = experiment: Incretin responses in Arrb2-/- beta cells; type: cell-based, mouse
H9C2 cells = experiment: 2-NBD-Glucose uptake; type: cell-based; conditions: 100nM 30min, 20 minutes
[7] = Insulin icodec titration trial, CGM hypoglycaemia duration, insulin-naive T2D; type: in vivo, human; conditions: 4.4-7.2 mmol/L ±4 U/day
[8] = type: in vivo, human; conditions: comparator arm
[9] = training combined with carnosine 2g/day

Molecule: NCCC(=O)N[C@@H](Cc1cnc[nH]1)C(=O)O [carnosine]
- Stimulation of coupled mitochondrial respiration rate in permeabilized muscle fibers, compared to exercise alone ([1]; exercise with carnosine): 36.5%
- Improvement in aerobic fitness (VO2max) [1, 9]: 14.8%
- Improvement in metabolic flexibility (ΔRQ) [1, 9]: 7.3%
- Improvement in sit-to-stand test ([1]; training combined with carnosine 2g/day, 3 months): 9.2%

Molecule: COc1ccc(/C=C/C(=O)c2c(-c3ccccc3)c3ccccc3[nH]c2=O)cc1 [ceranib-2]
- Accumulation in total endogenous Cer content (C2C12 myotubes): 50%

Molecule: CC(C)(Oc1ccc(C2CC2(Cl)Cl)cc1)C(=O)O (stereo not shown) [ciprofibrate]
- Hepatic lipid content ([2]; 100 mg/day for 5 weeks): 10.4 ± 10.0%
- Serum triglycerides ([2]; 100 mg/day for 5 weeks): 1.57 ± 1.05 mmol/L
- Myocardial net glucose uptake ([2]; 18F-FDG PET during clamp): 0.040 ± 0.024 ml/100ml/min/mIU insulin
- Net hepatic glucose uptake (Ki) ([2]; 18F-FDG PET during hyperinsulinemic euglycemic clamp): 0.7 ± 0.2 ml/100ml/min

- contribution of acetyl-CoA to oleate synthesis ([3]; HFHS mice): 7 ± 2%
- contribution of acetyl-CoA to palmitoleate synthesis ([3]; HFHS mice): 7 ± 2%
- contribution of acetyl-CoA to the synthesis of SFA ([3]; HFHS mice): 18 ± 3%
- contribution of acetyl-CoA to oleate synthesis ([3]; HS mice): 16 ± 3%
- contribution of acetyl-CoA to palmitoleate synthesis ([3]; HS mice): 18 ± 3%
- contribution of acetyl-CoA to the synthesis of SFA ([3]; HS mice, mean ± standard error): 28 ± 4%
Molecule: O=C(CO)[C@@H](O)[C@H](O)[C@H](O)CO [fructose]

Molecule: CC[C@H](C)[C@H](NC(=O)[C@H](Cc1ccccc1)NC(=O)[C@H](CCC(=O)O)NC(=O)[C@H](CCCCNC(=O)COCCOCCNC(=O)COCCOCCNC(=O)CC[C@H](NC(=O)CCCCCCCCCCCCCCCCC(=O)O)C(=O)O)NC(=O)[C@H](C)NC(=O)[C@H](C)NC(=O)[C@H](CCC(N)=O)NC(=O)CNC(=O)[C@H](CCC(=O)O)NC(=O)[C@H](CC(C)C)NC(=O)[C@H](Cc1ccc(O)cc1)NC(=O)[C@H](CO)NC(=O)[C@H](CO)NC(=O)[C@@H](NC(=O)[C@H](CC(=O)O)NC(=O)[C@H](CO)NC(=O)[C@@H](NC(=O)[C@H](Cc1ccccc1)NC(=O)[C@@H](NC(=O)CNC(=O)[C@H](CCC(=O)O)NC(=O)C(C)(C)NC(=O)[C@@H](N)Cc1cnc[nH]1)[C@@H](C)O)[C@@H](C)O)C(C)C)C(=O)N[C@@H](C)C(=O)N[C@@H](Cc1c[nH]c2ccccc12)C(=O)N[C@@H](CC(C)C)C(=O)N[C@H](C(=O)N[C@@H](CCCNC(=N)N)C(=O)NCC(=O)N[C@@H](CCCNC(=N)N)C(=O)NCC(=O)O)C(C)C [semaglutide]
- Premature treatment discontinuations due to AEs ([4]; with SGLT-2i): 5.5%
- Premature treatment discontinuations due to AEs ([4]; without SGLT-2i): 13.4%

Molecule: C/C=C(/C)C(=O)O[C@H]1C(C)=C2[C@H]([C@@H]1OC(=O)CCCCCCC)[C@@](C)(OC(C)=O)C[C@H](OC(=O)CCC)[C@@]1(O)[C@H]2OC(=O)[C@@]1(C)O [thapsigargin]
- Decrease of insulin mRNA expression (Ins1 and Ins2) (INS-1 832/13 cells): 85%
- Increase of Atf4 mRNA expression (INS-1 832/13 cells): 3.0 fold
- Increase of Atf6 mRNA expression (INS-1 832/13 cells): 1.8 fold
- Increase of Cebpg mRNA expression (INS-1 832/13 cells): 3.7 fold
- Increase of Xbp1s mRNA expression (INS-1 832/13 cells): 2.9 fold

Molecule: Basal insulin Fc [BIF]
- HbA1c reduction from baseline to Week 32, mean±SE ([5]; BIF-A1, fasting glucose target ≤7.8 mmol/L): 0.6±0.1%
- HbA1c reduction from baseline to Week 32, mean±SE ([5]; BIF-A2, fasting glucose target ≤6.7 mmol/L): 0.6±0.1%

Molecule: Insulin Degludec 100 U/mL [IDeg-100]
- Incidence rate of blood glucose <54 mg/dl [6]: 0.02 episodes per patient-months
- Incidence rate of blood glucose ≤70 mg/dl [6]: 0.14 episodes per patient-months
- FBG change at 6 months [6]: -61 mg/dL
- FBG reduction at 6 months [6]: 3.4 mmol/L
- HbA1c reduction from baseline to 12 months [6]: -1.44%
- HbA1c change from baseline to 6 months [6]: -1.69%

Molecule: Insulin Glargine 300U/mL [Gla-300]
- Between group mean difference in HbA1c at 6 months, Gla-300 vs IDeg-100 ([6]; 95%CI -0.29;0.27): 0.01%
- Incidence rate of blood glucose <54 mg/dl [6]: 0.02 episodes per patient-months
- Incidence rate of blood glucose ≤70 mg/dl [6]: 0.13 episodes per patient-months
- FBG change at 6 months [6]: -63 mg/dL
- FBG reduction at 6 months [6]: 3.5 mmol/L
- HbA1c reduction from baseline to 12 months [6]: -1.71%
- HbA1c change from baseline to 6 months [6]: -1.70%

Molecule: glucagon-like peptide 1 (HAEGTFTSDVSSYLEGQAAKEFIAWLVKGR; ends and bridges not checked; UniProt P01275 98-127, looked up) [GLP-1]
- Reduction of ERK1/2 activation in Arrb2-/- beta cells (Arrb2-/- beta cells): ~ 50%

Molecule: insulin
- 2-NBD-Glucose uptake after insulin (H9C2 cells; H9C2, 20mM glucose 3 months): 17%
- 2-NBD-Glucose uptake after insulin (H9C2 cells; H9C2, 20mM glucose 6 months): 8%
- 2-NBD-Glucose uptake after insulin (H9C2 cells; H9C2, 30mM glucose 3 months): 15%
- 2-NBD-Glucose uptake after insulin (H9C2 cells; H9C2GLUT4, 20mM glucose 3 months): 31%
- 2-NBD-Glucose uptake after insulin (H9C2 cells; H9C2GLUT4, 20mM glucose 6 months): 27%
- 2-NBD-Glucose uptake after insulin (H9C2 cells; H9C2GLUT4, 30mM glucose 3 months): 43%

Molecule: insulin glargine U100 [IGlar U100]
- Overall hypoglycaemic episode duration, median (IQR) [7]: 35.0 (20.0, 70.0) min
- Overall hypoglycaemic episode duration, median (IQR) [8]: 35.0 (20.0, 60.0) min
